In experiment [1] the target is Acetylcholinesterase (Electrophorus electricus) (UniProt O42275). Nature of the experiment: Reversible inhibition of Electrophorus electricus (electric eel)acetylcholinesterase (AChE) using acetylthiocholine iodide substrate by Ellman method based colorimetry.
Experiment [2] has the same target. Nature of the experiment: Competitive inhibition of Electrophorus electricus (electric eel) acetylcholinesterase (AChE) using acetylthiocholine iodide substrate by Ellman method based colorimetry.
The target is the same in experiment [3]. Nature of the experiment: Inhibition of Electrophorus electricus (electric eel) acetylcholinesterase (AChE) at 100 mM using 10 mM acetylthiocholine iodide substrate after 15 min by Ellman method based colorimetry.
The target is the same in experiment [4]. Nature of the experiment: Inhibition of Electrophorus electricus (electric eel) acetylcholinesterase (AChE) at 50 mM using 5 mM acetylthiocholine iodide substrate after 15 min by Ellman method based colorimetry.
For experiment [5] the target is unchanged. As to the kind of experiment: Inhibition of Electrophorus electricus (electric eel) acetylcholinesterase (AChE) at 10 mM using 2 mM acetylthiocholine iodide substrate after 15 min by Ellman method based colorimetry.
For experiment [6] the target is unchanged. As to the kind of experiment: Inhibition of Electrophorus electricus (electric eel) acetylcholinesterase (AChE) at 1 mM using 1 mM acetylthiocholine iodide substrate after 15 min by Ellman method based colorimetry.
The next experiment has as its target Acetylcholinesterase (Electrophorus electricus, UniProt O42275). As to the kind of experiment: Inhibition of Electrophorus electricus (electric eel) acetylcholinesterase (AChE) using acetylthiocholine iodide substrate by Ellman method based colorimetry.
Experiment [7] deals with Acetylcholinesterase (Electrophorus electricus) (UniProt O42275). As to the kind of experiment: Mixed type inhibition of Electrophorus electricus (electric eel) acetylcholinesteraseAChE using acetylthiocholine iodide substrate by Ellman method based colorimetry.

Active and inactive are the calls of the source. The rule behind the calls is not given here.

Sequence of Acetylcholinesterase (O42275 whole entry): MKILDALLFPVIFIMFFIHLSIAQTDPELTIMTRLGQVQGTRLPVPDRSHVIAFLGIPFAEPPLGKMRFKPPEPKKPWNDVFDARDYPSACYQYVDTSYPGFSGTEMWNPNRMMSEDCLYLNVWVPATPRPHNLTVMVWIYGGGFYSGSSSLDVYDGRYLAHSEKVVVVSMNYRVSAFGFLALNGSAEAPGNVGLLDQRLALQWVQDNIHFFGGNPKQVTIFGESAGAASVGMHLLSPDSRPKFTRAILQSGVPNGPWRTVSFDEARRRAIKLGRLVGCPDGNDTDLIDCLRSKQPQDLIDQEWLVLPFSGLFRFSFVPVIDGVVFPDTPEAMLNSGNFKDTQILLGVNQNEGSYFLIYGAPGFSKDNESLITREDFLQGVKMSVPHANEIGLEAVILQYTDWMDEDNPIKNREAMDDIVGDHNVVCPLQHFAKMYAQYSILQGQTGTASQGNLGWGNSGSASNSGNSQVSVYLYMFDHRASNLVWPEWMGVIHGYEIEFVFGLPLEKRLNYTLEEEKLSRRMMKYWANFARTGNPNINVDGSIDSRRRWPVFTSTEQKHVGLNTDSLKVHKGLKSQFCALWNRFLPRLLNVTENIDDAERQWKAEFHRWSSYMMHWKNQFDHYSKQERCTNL
Sequence of Acetylcholinesterase (Electrophorus electricus) (O42275 24-633 limits assumed): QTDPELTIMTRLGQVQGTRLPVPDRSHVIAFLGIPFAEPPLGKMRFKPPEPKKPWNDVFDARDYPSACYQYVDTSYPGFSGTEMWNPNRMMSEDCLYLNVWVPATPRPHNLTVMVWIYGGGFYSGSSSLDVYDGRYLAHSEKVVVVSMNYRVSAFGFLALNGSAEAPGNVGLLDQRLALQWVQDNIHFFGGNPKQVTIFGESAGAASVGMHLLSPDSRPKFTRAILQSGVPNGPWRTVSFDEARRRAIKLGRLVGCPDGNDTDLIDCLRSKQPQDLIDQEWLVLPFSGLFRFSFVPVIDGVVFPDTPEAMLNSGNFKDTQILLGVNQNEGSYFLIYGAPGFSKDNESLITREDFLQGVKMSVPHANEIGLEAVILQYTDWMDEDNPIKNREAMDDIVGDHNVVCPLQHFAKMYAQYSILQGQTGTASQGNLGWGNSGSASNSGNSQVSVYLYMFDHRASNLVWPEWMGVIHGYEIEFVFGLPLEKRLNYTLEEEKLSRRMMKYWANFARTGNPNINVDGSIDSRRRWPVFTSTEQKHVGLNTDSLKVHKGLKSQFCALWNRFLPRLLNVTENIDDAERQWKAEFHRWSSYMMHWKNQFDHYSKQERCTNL

As for `CC12CCC(C1)C(C)(C)C2=O` (configuration not stated) [FENCHONE], the inhibition entry in experiment [1] and in experiment [2] was “Active” throughout. The inhibition was determined as 90.7% in experiment [3], 84.1% in experiment [4], 79.8% in experiment [5] and 53.8% in experiment [6]. For the same compound, the Ki on Acetylcholinesterase (read-out: Ki) came to 400 µM.

On to `CC1=CCC(C(C)C)=CC1` [GAMMA-TERPINENE], for which the inhibition entry in experiment [1] and in experiment [2] was “Active” in each case. Further, the Ki at Acetylcholinesterase (read-out: Ki) is 200 µM.

In the case of `C=CCc1ccc(OC)cc1` [ESTRAGOLE], the inhibition result in experiment [7] and in experiment [1] was “Active” each time. For the same compound, the Ki at Acetylcholinesterase (read-out: Ki) was 150 µM.

Take `C/C=C/c1ccc(OC)cc1` [ANETHOLE]: the inhibition entry in experiment [1] was “Active”. Further, the inhibition constant (Ki) result on Acetylcholinesterase is recorded as “Not Active”.

For `CC(C)=CCC/C(C)=C/CO` [GERANIOL], the inhibition entry in experiment [1] and in experiment [2] was “Active” throughout. For the same compound, the Ki at Acetylcholinesterase (read-out: Ki) came out at 100 µM.

Turning to `C=CC(C)(O)CCC=C(C)C` (configuration not stated) [LINALOOL], the inhibition entry in experiment [1] and in experiment [2] was “Active” each time. In addition, the Ki on Acetylcholinesterase (read-out: Ki) is 300 µM.

For `C=C(C)[C@H]1CC=C(C)C(=O)C1` [(S)(+)CARVONE], the inhibition entry in experiment [7] and in experiment [1] was “Active” throughout. For the same compound, the Ki on Acetylcholinesterase (read-out: Ki) is 300 µM.

Regarding `CC12CCC(CC1=O)C2(C)C` (configuration not stated) [CAMPHOR], the inhibition result in experiment [7] and in experiment [1] was “Active” each time. On Acetylcholinesterase (read-out: Ki), the inhibition constant (Ki) amounted to 50 µM.

Values taken from ChEMBL document CHEMBL3045849, “Mode of inhibition of acetylcholinesterase by monoterpenoids and implications for pest control” (Ind Crops Prod, 2010).
